Laboratory results taken from patent publication US7078400B2, “20-HETE synthase inhibitor” (Taisho Pharmaceutical Co., Ltd., priority 1999, dated 2006).

Tested on: 20-HETE synthase originated from rat kidney microsome
Test: Inhibitory effect of 20-HETE synthase originated from rat kidney microsome
Assay type: biochemical
Conditions: 1 μM of subject compound; 20-HETE production without compound set to 100%; rat kidney microsome
Procedure: Experimental Example [Inhibitory effect of 20-HETE synthase originated from rat kidney microsome]
Regarding the compounds listed in Table 1, their inhibitory activity to production of 20-HETE was examined.
The subject compound for this examination was added to a buffer comprising 50 mM of 3-morpholinopropane sulfonic acid (pH7.4), 5 mM of magnesium chloride and 1 mM of ethylenediaminetetraacetic acid (EDTA) disodium salt.
After that, the rat kidney microsome (microsome fraction prepared from the kidney of a spontaneous hypertension rat (male, 6 weeks of age)) as an enzyme, [5,6,8,9,11,12,14,15] tritium-arachidonic acid (supplied by Amasham) as a substrate, and NADPH (supplied by Sigma) as a coenzyme were added and reacted for 1.5 hours at 37° C.
After the reaction, formic acid was added to stop the reaction, and then acetonitrile (final concentration of 50%) was added and left for 1.5 hours at room temperature.
The activity of 20-HETE synthase was measured by using a high performance liquid chromatograph having a detector for radioactive substances (supplied by Gilson), and equipped with a C18 reversed phase column (Biocyl C18, supplied by Bio-rad).

| SMILES | Inhibition rate (1 μM) |
| --- | --- |
| COc1ccc(N/C=N/O)c(OC)c1 [Comp. 198] | 81.8 |
| COC(=O)c1ccc(N/C=N/O)c(C)c1 [Comp. 199] | 85.6 |
| COC(=O)c1cc(I)ccc1N/C=N/O [Comp. 201] | 70.1 |
| O/N=C/Nc1c(F)cc(Br)cc1Br [Comp. 210] | 78 |
| Cc1ccc(CO)cc1N/C=N/O [Comp. 214] | 31.9 |
| O/N=C/Nc1c(F)c(F)c(F)c(F)c1F [Comp. 215] | 36.1 |
| O=[N+]([O-])c1ccc(Sc2ccc(N/C=N/O)cc2)cc1 [Comp. 223] | 52.2 |
| O/N=C/Nc1ccc(SC(F)(F)F)cc1 [Comp. 224] | 47.1 |
| COc1ccc(/C=C/c2ccc(N/C=N/O)cc2)cc1 [Comp. 228] | 72.0 |
| O/N=C/Nc1cccc2ccccc12 [Comp. 242] | 50.6 |
| Cc1cc(N/C=N/O)ccc1N1C(=O)c2ccc(Cl)cc2C1=O [Comp. 244] | 32.7 |
| CCC1(c2ccc(N/C=N/O)cc2)CCC(=O)NC1=O (stereo not drawn) [Comp. 245] | 55.4 |
| CNS(=O)(=O)Cc1ccc(N/C=N/O)cc1 [Comp. 259] | 52.8 |
| O/N=C/Nc1ccc2c(c1)Cc1cc(Br)ccc1-2 [Comp. 274] | 94.5 |
| COc1cc2c(cc1N/C=N/O)oc1ccccc12 [Comp. 277] | 76.4 |
| O=C(Nc1ccccc1)c1ccccc1N/C=N/O [Comp. 278] | 65.3 |
| Cc1cc(C(C#N)c2ccc(Cl)cc2)c(Cl)cc1N/C=N/O (stereo not drawn) [Comp. 279] | 42.8 |
| CCCCN(CCCC)CCCOC(=O)c1ccc(N/C=N/O)cc1 [Comp. 281] | 50.9 |
| CN(C)c1ccc(/C=C/c2ccc(N/C=N/O)cc2)cc1 [Comp. 282] | 122.9 |
| N#CC(c1ccccc1)c1ccc(N/C=N/O)cc1 (stereo not drawn) [Comp. 283] | 62.6 |
| Cc1ccc2cc(N/C=N/O)ccc2n1 [Comp. 295] | 73.8 |
| O/N=C/Nc1ccc2ncccc2c1 [Comp. 297] | 71.1 |
| CC(=O)N(C)c1ccc(N/C=N/O)cc1 [Comp. 301] | 62.1 |

Same assay, conditions: 1 μM of the subject compound added; 20-HETE production without compound set to 100%; rat kidney microsome

| SMILES | Inhibition rate (1 μM) |
| --- | --- |
| Cc1ccc(N/C=N/O)c(C)c1 [Comp. 22] | 95.7 |
| O/N=C/Nc1ccc(Br)cc1Cl [Comp. 35] | 95.4 |
| Cc1ccc(C(C)C)cc1N/C=N/O [Comp. 57] | 59.1 |
| COc1ccccc1N/C=N/O [Comp. 59] | 49.0 |
| Cc1cccc(N/C=N/O)c1 [Comp. 62] | 69.5 |
| Cc1cccc(N/C=N/O)c1C [Comp. 63] | 49.3 |
| COc1cccc(N/C=N/O)c1 [Comp. 65] | 59.3 |
| CCOc1cccc(N/C=N/O)c1 [Comp. 66] | 41.2 |
| Cc1c(Cl)cccc1N/C=N/O [Comp. 67] | 48.4 |
| O/N=C/Nc1ccc(F)cc1Cl [Comp. 69] | 58.7 |
| CCCCCCCCc1ccc(N/C=N/O)cc1 [Comp. 70] | 32.9 |
| CCCc1ccccc1N/C=N/O [Comp. 71] | 42.5 |
| O/N=C/Nc1ccc(I)cc1Cl [Comp. 73] | 99.9 |
| Cc1cc(Br)cc(C)c1N/C=N/O [Comp. 74] | 43.7 |
| O/N=C/Nc1ccccc1Br [Comp. 75] | 46.9 |
| COc1cc(N/C=N/O)cc(OC)c1 [Comp. 76] | 35.1 |
| O/N=C/Nc1ccc(Br)cc1C(F)(F)F [Comp. 77] | 49.0 |
| COc1ccc(N/C=N/O)cc1OC [Comp. 78] | 36.3 |
| O/N=C/Nc1ccccc1F [Comp. 79] | 35.3 |

| SMILES | Inhibition rate (1 μM) |
| --- | --- |
| O/N=C/Nc1cc(C(F)(F)F)ccc1Cl [Comp. 80] | 37.2 |
| O/N=C/Nc1cccc(Cl)c1Cl [Comp. 81] | 51.3 |
| Cc1ccc(N/C=N/O)cc1Cl [Comp. 86] | 58.7 |
| COc1ccc(C(F)(F)F)cc1N/C=N/O [Comp. 90] | 36.5 |
| O/N=C/Nc1cccc(I)c1 [Comp. 91] | 36.6 |
| CCOc1ccc(N/C=N/O)c([N+](=O)[O-])c1 [Comp. 94] | 41.2 |
| Cc1cc(C)c(N/C=N/O)c([N+](=O)[O-])c1 [Comp. 95] | 44.5 |
| COc1ccc(N/C=N/O)cc1F [Comp. 98] | 43.9 |
| COc1cccc(N/C=N/O)c1OC [Comp. 99] | 40.8 |
| COc1ccc(N/C=N/O)cc1Cl [Comp. 101] | 52.4 |
| O/N=C/Nc1c(Br)cc(C2CCCCC2)cc1Br [Comp. 102] | 44.4 |
| COc1ccc(C)c(N/C=N/O)c1 [Comp. 104] | 31.9 |
| O/N=C/Nc1ccc(C(O)(C(F)(F)F)C(F)(F)F)cc1 [Comp. 105] | 46.7 |
| COc1cc(OC)c(N/C=N/O)cc1Cl [Comp. 108] | 36.4 |
| N#Cc1ccc(N/C=N/O)cc1 [Comp. 112] | 37.4 |
| O/N=C/Nc1ccc(Cl)cc1Br [Comp. 117] | 71.6 |
| COC(=O)c1ccc(N/C=N/O)cc1 [Comp. 123, N-(4-methoxycarbonylphenyl)-N′-hydroxyformamidine] | 92.7 |
| O/N=C/Nc1ccccc1 [Comp. 135] | 49.3 |
| O=C(OC/C=C/c1ccccc1)c1ccccc1N/C=N/O [Comp. 138] | 44.0 |

| SMILES | Inhibition rate (1 μM) |
| --- | --- |
| CCc1cccc(C)c1N/C=N/O [Comp. 139] | 69.7 |
| Cc1ccc(N/C=N/O)c([N+](=O)[O-])c1 [Comp. 143] | 37.3 |
| CSCc1cccc(C(F)(F)F)c1N/C=N/O [Comp. 149] | 36.5 |
| CC(=O)Nc1ccc(N/C=N/O)cc1C(F)(F)F [Comp. 150] | 34.1 |
| O/N=C/Nc1ccc(OC(F)F)cc1 [Comp. 151] | 108.2 |
| O/N=C/Nc1ccccc1OC(F)F [Comp. 153] | 39.4 |
| COc1ccc(Oc2ccc(C(F)(F)F)cc2N/C=N/O)cc1 [Comp. 156] | 39.4 |
| CCCCCCCCCCc1ccc(N/C=N/O)cc1 [Comp. 157] | 121.4 |
| CSc1cccc(N/C=N/O)c1 [Comp. 162] | 62.6 |
| CCc1cccc(C(C)C)c1N/C=N/O [Comp. 163] | 40.0 |
| Cc1ccc(N/C=N/O)c(F)c1 [Comp. 165] | 105.7 |
| Cc1ccc(N/C=N/O)c(CO)c1 [Comp. 171] | 54.1 |
| CC(C)(C)c1cccc(N/C=N/O)c1 [Comp. 175] | 69.9 |
| CCCc1cccc(N/C=N/O)c1 [Comp. 179] | 63.5 |
| CCOC(=O)c1ccc(N/C=N/O)cc1 [Comp. 183] | 92.0 |
| CC(C)OC(=O)c1ccc(N/C=N/O)cc1 [Comp. 188] | 59.1 |
| CC(C)COC(=O)c1ccc(N/C=N/O)cc1 [Comp. 189] | 116.8 |
| COC(=O)c1ccc(OC)c(N/C=N/O)c1 [Comp. 190] | 44.9 |
| COc1cc(C#N)c(N/C=N/O)cc1OC [Comp. 196] | 46.9 |

Same assay, conditions: concentration at which production of 20-HETE was inhibited to 50%; rat kidney microsome

| IC50 [nM] | SMILES |
| --- | --- |
| 86.5 | O/N=C/Nc1ccc(Br)cc1Cl [Comp. 35] |
